Source: patent US6605459B2, “Methods for measuring cysteine and determining cysteine synthase activity” (Paradigm Genetics, Inc., priority 2001, dated 2003)

Target: T1, cysteine synthase (Arabidopsis thaliana, UniProt Q9S6Z7)
T1 construct: made in house; host or cells: E. coli BL21(DE3)lysS (pET30/CS) or Sf-9 insect cells (baculovirus, pFB/CS)
Experiment: Assay tolerance of DMSO in the cysteine synthase assay
Format: biochemical
Details: 0 to 2% DMSO (by volume)
Method: A cysteine synthase assay was performed using various amounts of DMSO to test the assay compatibility of the DMSO. The results are shown in FIG. 24, where all values are the mean of triplicate determinations, and standard deviations are indicated.

T1 sequence (Q9S6Z7 whole entry): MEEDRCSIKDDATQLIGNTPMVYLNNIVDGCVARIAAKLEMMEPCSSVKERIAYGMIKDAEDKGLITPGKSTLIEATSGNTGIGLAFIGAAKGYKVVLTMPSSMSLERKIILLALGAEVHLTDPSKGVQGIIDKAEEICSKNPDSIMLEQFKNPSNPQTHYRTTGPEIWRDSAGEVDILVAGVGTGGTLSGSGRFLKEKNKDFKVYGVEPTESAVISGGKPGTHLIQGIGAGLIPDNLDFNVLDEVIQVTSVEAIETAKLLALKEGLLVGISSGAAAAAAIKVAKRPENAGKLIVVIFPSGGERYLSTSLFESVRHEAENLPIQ

Structure (SMILES): C[S+](C)[O-] [DMSO, dimethyl sulfoxide]
- inhibitory effect on cysteine synthase activity: No inhibitory effect
